{
  "source": "ChEMBL document CHEMBL5725409",
  "about": "“Small molecule myristate inhibitors of Bcr-abl and methods of use” (2017)",
  "data": [
    {"test": "Kinase Assay: In vitro kinase assays were carried out by using recombinant murine c-abl containing SH3, SH2 and kinase domains (residues 46-531) and full length immunoprecipitated Bcr-abl. Recombinant abl was expressed in Sf9 insect cells and purified as described above. Bcr-abl immune complexes were obtained with Ab-3 anti-abl monoclonal antibody (Oncogene Science) from Ba/F3.p210 lysates as previously described. 1 μg of recombinant abl or immunoprecipitated Bcr-abl (from 3×10^6 cells) were incubated with various concentrations of test compound (0.1, 1 and 10 M) in kinase buffer (50 mM Tris-HCl pH 7.5, 10 mM MgCl2, […], 1 mM DTT, 0.015% Brij 35), 100 μM ATP and 1 μCi [γ-32P]-ATP for 30 min at 30° C. (Calbiochem buffer and protocol). The reaction was stopped by addition of Laemmli buffer and the proteins were resolved by SDS-PAGE in a 4-20% gel. The phosphoproteins were visualized by autoradiography and the autophosphorylation quantitated using a phosphoimager (STORM, Molecular Devices).", "units": {"IC50": "nM"}, "values": [
      {"smiles": "O=C(NC(=O)c1cc2c(Nc3ccc(OC(F)(F)F)cc3)ncnc2s1)c1cccc(C(F)(F)F)c1", "IC50": 1440},
      {"smiles": "COc1cc(-c2cc(Nc3ccc(OC(F)(F)F)cc3)ncn2)co1", "IC50": 940},
      {"smiles": "O=C(NCCN1CCOCC1)c1cc2c(Nc3ccc(OC(F)(F)F)cc3)ncnc2s1", "IC50": "> 10000"}
    ]}
  ]
}
